Data reported in US20120225135A1 (priority 2010, published 2012).
Values joined by “and” are separate entries in the source; they are usually repeats but may differ in a detail not shown here. Equal entries are not always repeated. Where two headings read alike, the source gives them in different places.

Columns and labels:
[1] = format: physicochemical; details: for Found ppm: test level 0.13 ppm ClO2, taken 0.130 ppm
[2] = ORP stability test (ORP meter); format: physicochemical
Description: Two further samples from the original batch were taken one was packed in an amber coloured PET bottle and the second in a HDPE plastic pouch.
Both were placed in an area out of direct sunlight and further the second sample was protected from light by a cardboard box.
Measurements of their voltage were taken using an ORP meter in accordance with the testing procedure described in the ORP related articles above.
Samples were kept in an office environment in Richmond on an exposed bench.
Sampling Equipment EUTECH INSTRUMENTS Waterproof ORPTestr 10

[3] = test system: Saccharomyces diastaticus (70 percent sporulated); experiment: Microbiological effectiveness at cold temperatures; format: cell-based
Lactobacillus frigidus = experiment: Microbiological effectiveness at cold temperatures; format: cell-based
Pediococcus damnosus = experiment: Microbiological effectiveness at cold temperatures; format: cell-based
Enterobacter Cloacae = experiment: Microbiological effectiveness at cold temperatures; format: cell-based
TPC = experiment: Sanitation of fishing holds, TPC; details: cleaned surface sprayed with 10 ppm ClO2 solution
Description: Gross filth removed and washed in detergent
Cleaned surface sprayed with 10 ppm ClO2 solution

[4] = test system: Klebsiella terrigena, ATCC 33257; format: cell-based; details: pH 5
[5] = test system: Escherichia coli, ATCC 11229; format: cell-based; details: pH 5
[6] = test system: Legionella pneumophila, ATCC 33153; format: cell-based; details: pH 5
[7] = test system: Rotavirus SA-11, ATCC VR-899; format: cell-based; details: pH 9
[8] = test system: Cryptosporidium parvum oocysts; details: in vivo
Giardia muris cysts = details: in vivo
[9] = Residual ClO2 after contact with effluents or tap water (amperometric titration); format: physicochemical; details: for Residual ClO2: trickling filters effluents
Total Coliform = experiment: Disinfection of effluents, total coliforms; format: cell-based; details: for Total Coliforms: effluents, ClO2 dose 9.86 mg/L, 30 minutes; for Total Coliform per 100 mL: trickling filters effluents
Streptococcus = experiment: Disinfection of effluents, streptococcus; format: cell-based; details: trickling filters effluents
E-Coli Phage = experiment: Disinfection of effluents, E. coli phage; format: cell-based; details: ClO2 dose 9.86 mg/L, 30 minutes
[10] = ClO2 dose 2.7 mg/L, contact time 5 min
[11] = ClO2 dose 2.7 mg/L, contact time 20 min
[12] = ClO2 dose 10.8 mg/L, contact time 5 min
[13] = ClO2 dose 10.8 mg/L, contact time 20 min

## [O][Cl+][O-] [Chlorine Dioxide, chlorine dioxide]
[1]; Day 1, n 6
  Mean: 0.126 ppm
[1]; Day 1
  Found ppm: 0.128 ppm and 0.126 ppm and 0.115 ppm and 0.127 ppm and 0.133 ppm
[1]; Day 5, n 6
  Mean: 0.122 ppm
[1]; Day 5
  Found ppm: 0.125 ppm and 0.122 ppm and 0.117 ppm and 0.123 ppm and 0.118 ppm
[1]; Day 15, n 5
  Mean: 0.129 ppm
[1]; Day 15
  Found ppm: 0.133 ppm and 0.129 ppm and 0.127 ppm and 0.125 ppm and 0.131 ppm and 0.157* ppm
[1]; Day 30, n 5
  Mean: 0.128 ppm
[1]; Day 30
  Found ppm: 0.126 ppm and 0.130 ppm and 0.128 ppm and 0.125 ppm and 0.161* ppm
[1]; Day 48, n 5
  Mean: 0.129 ppm
[1]; Day 48
  Found ppm: 0.131 ppm and 0.127 ppm and 0.128 ppm and 0.164* ppm
[1]; Day 96, n 4
  Mean: 0.133 ppm
[1]; Day 96
  Found ppm: 0.137 ppm and 0.132 ppm and 0.128 ppm and 0.133 ppm and 0.161* ppm
[2]; Card Board Wine Cask, April 20 (2005/2006)
  ORP mV: 991 mV
[2]; Card Board Wine Cask, August 3 (2005/2006)
  ORP mV: 987 mV
[2]; Card Board Wine Cask, August 24 (2005/2006)
  ORP mV: 1143 mV
[2]; Card Board Wine Cask, January 18 (2005/2006)
  ORP mV: 1021 mV
[2]; Card Board Wine Cask, July 7 (2005/2006, first entry)
  ORP mV: 970 mV
[2]; Card Board Wine Cask, July 12 (2005/2006, last entry)
  ORP mV: 975 mV
[2]; Card Board Wine Cask, July 18 (2005/2006)
  ORP mV: 980 mV
[2]; Card Board Wine Cask, June 2 (2005/2006)
  ORP mV: 970 mV
[2]; Card Board Wine Cask, March 14 (2005/2006)
  ORP mV: 1008 mV
[2]; Card Board Wine Cask, May 11 (2005/2006)
  ORP mV: 970 mV
[2]; Card Board Wine Cask, November 29 (2005/2006)
  ORP mV: 977 mV
[2]; Card Board Wine Cask, October 21 (2005/2006)
  ORP mV: 1036 mV
[2]; Card Board Wine Cask, September 5 (2005/2006)
  ORP mV: 1135 mV
[2]; Card Board Wine Cask, September 20 (2005/2006)
  ORP mV: 1130 mV
[2]; Sample PET bottle, April 20 2005
  ORP mV: 975 mV
[2]; Sample PET bottle, Aug 8 2005
  ORP mV: 926 mV
[2]; Sample PET bottle, Aug 24 2005
  ORP mV: 960 mV
[2]; Sample PET bottle, July 10 2005
  ORP mV: 960 mV
[2]; Sample PET bottle, July 20 2005
  ORP mV: 954 mV
[2]; Sample PET bottle, June 12 2005
  ORP mV: 970 mV
[2]; Sample PET bottle, June 21 2005
  ORP mV: 965 mV
[2]; Sample PET bottle, May 10 2005
  ORP mV: 980 mV
[2]; Sample PET bottle, May 20 2005
  ORP mV: 971 mV
[2]; Sample PET bottle, Oct 12 2005
  ORP mV: 948 mV
[2]; Sample PET bottle, Oct 28 2005
  ORP mV: 941 mV
[2]; Sample PET bottle, Sept 5 2005
  ORP mV: 955 mV
[2]; Sample PET bottle, Sept 20 2005
  ORP mV: 954 mV
[3]
  Deactivation (%): 99.999%
Lactobacillus frigidus
  Deactivation (%): 99.999%
Pediococcus damnosus
  Deactivation (%): 99.999%
Enterobacter Cloacae
  Deactivation (%): 99.999%
TPC
  TPC at day zero: less than 7×10^4
[4]
  reduction in titer: > 6 log 10
[5]
  reduction in titer: > 6 log 10
[6]
  reduction in titer: > 6 log 10
[7]
  reduction in titer: > 4 log 10
[8]
  reduction of infectivity for mice: > 3 log 10
Giardia muris cysts
  reduction of infectivity for mice: > 3 log 10
[9]; effluent, ClO2 dose 5.2 mg/L, contact time 3½ hrs
  ClO2 residual: 0.4 mg/L as ClO2
[9]; effluent, ClO2 dose 5.2 mg/L, contact time 10 min
  ClO2 residual: 1.9 mg/L as ClO2
[9]; effluent, ClO2 dose 5.2 mg/L, contact time 30 min
  ClO2 residual: 1.4 mg/L as ClO2
[9]; effluent, ClO2 dose 5.2 mg/L, contact time 1 hr
  ClO2 residual: 1.0 mg/L as ClO2
[9]; effluent, ClO2 dose 5.2 mg/L, contact time 2 hrs
  ClO2 residual: 0.8 mg/L as ClO2
[9]; effluent, ClO2 dose 5.2 mg/L, contact time 24 hrs
  ClO2 residual: 0 mg/L as ClO2
[9]; effluents, ClO2 dose 7.84 mg/L, contact time 10 min
  ClO2 residual: 3.0 mg/L as ClO2
[9]; effluents, ClO2 dose 7.84 mg/L, contact time 30 min
  ClO2 residual: 2.6 mg/L as ClO2
[9]; effluents, ClO2 dose 7.84 mg/L, contact time 60 min
  ClO2 residual: 2.1 mg/L as ClO2
[9]; effluents, ClO2 dose 7.84 mg/L, contact time 1.5 hr
  ClO2 residual: 1.9 mg/L as ClO2
[9]; effluents, ClO2 dose 7.84 mg/L, contact time 2.5 hr
  ClO2 residual: 1.5 mg/L as ClO2
[9]; effluents, ClO2 dose 7.84 mg/L, contact time 3.5 hr
  ClO2 residual: 1.0 mg/L as ClO2
[9]; effluents, dose 19.2 mg/L, 20 minutes, pH initial 4, final 3.4
  ClO2 residual: 4.66 mg/L as ClO2
[9]; effluents, dose 19.2 mg/L, 20 minutes, pH initial 5, final 4.6
  ClO2 residual: 4.37 mg/L as ClO2
[9]; effluents, dose 19.2 mg/L, 20 minutes, pH initial 6, final 6.45
  ClO2 residual: 4.95 mg/L as ClO2
[9]; effluents, dose 19.2 mg/L, 20 minutes, pH initial 7.5, final 7.3
  ClO2 residual: 3.84 mg/L as ClO2
[9]; effluents, dose 19.2 mg/L, 20 minutes, pH initial 9, final 8.8
  ClO2 residual: 1.27 mg/L as ClO2
[9]; effluents, dose 19.2 mg/L, 20 minutes, pH initial 10, final 9.9
  ClO2 residual: 0.11 mg/L as ClO2
[9]; effluents, dose 37.5 mg/L, 20 minutes, pH initial 4.0, final 3.5
  ClO2 residual: 25.84 mg/L as ClO2
[9]; effluents, dose 37.5 mg/L, 20 minutes, pH initial 5.0, final 4.95
  ClO2 residual: 26.88 mg/L as ClO2
[9]; effluents, dose 37.5 mg/L, 20 minutes, pH initial 6.0, final 6.05
  ClO2 residual: 24.20 mg/L as ClO2
[9]; effluents, dose 37.5 mg/L, 20 minutes, pH initial 7.5, final 7.3
  ClO2 residual: 25.27 mg/L as ClO2
[9]; effluents, dose 37.5 mg/L, 20 minutes, pH initial 9, final 8.8
  ClO2 residual: 15.13 mg/L as ClO2
[9]; effluents, dose 37.5 mg/L, 20 minutes, pH initial 10, final 9.8
  ClO2 residual: 5.23 mg/L as ClO2
[9]; tap water with ammonium ion, nitrites, nitrates, neutral pH, dose 19.2 mg/L, 10 min
  ClO2 residual: 0 mg/L as ClO2
[9]; tap water with ammonium ion, nitrites, nitrates, neutral pH, dose 19.2 mg/L, 30 min
  ClO2 residual: 0 mg/L as ClO2
[9]; tap water with ammonium ion, nitrites, nitrates, neutral pH, dose 19.2 mg/L, 1 hr
  ClO2 residual: 0.07 mg/L as ClO2
[9]; tap water with ammonium ion, nitrites, nitrates, neutral pH, dose 19.2 mg/L, 3 hrs
  ClO2 residual: 0.03 mg/L as ClO2
[9]; tap water with ammonium ion, nitrites, nitrates, neutral pH, dose 19.2 mg/L, 24 hrs
  ClO2 residual: 0.08 mg/L as ClO2
[9]; dose 2.7 mg/L, contact time 5 min
  Residual ClO2: 0 mg/L as ClO2
[9]; dose 2.7 mg/L, contact time 20 min
  Residual ClO2: 0 mg/L as ClO2
[9]; dose 2.7 mg/L, contact time 35 min
  Residual ClO2: 0 mg/L as ClO2
[9]; dose 7.8 mg/L, contact time 5 min
  Residual ClO2: 1.28 mg/L as ClO2
[9]; dose 7.8 mg/L, contact time 20 min
  Residual ClO2: 1.03 mg/L as ClO2
[9]; dose 7.8 mg/L, contact time 35 min
  Residual ClO2: 0.84 mg/L as ClO2
[9]; dose 10.8 mg/L, contact time 5 min
  Residual ClO2: 3.10 mg/L as ClO2
[9]; dose 10.8 mg/L, contact time 20 min
  Residual ClO2: 2.17 mg/L as ClO2
[9]; dose 10.8 mg/L, contact time 35 min
  Residual ClO2: 2.07 mg/L as ClO2
Total Coliform; pH initial 4.6, final 4.4
  Total Coliforms: 4.5 MPN per 100 ml
Total Coliform; pH initial 5.5, final 5.6
  Total Coliforms: 7.8 MPN per 100 ml
Total Coliform; pH initial 6.5, final 6.7
  Total Coliforms: 7.8 MPN per 100 ml
Total Coliform; pH initial 7.5, final 7.6
  Total Coliforms: 49 MPN per 100 ml
Total Coliform; pH initial 8.2, final 8.1
  Total Coliforms: 4.6 × 10^2 MPN per 100 ml
Total Coliform; pH initial 9.1, final 9.2
  Total Coliforms: 5.4 × 10^3 MPN per 100 ml
Total Coliform; pH initial 10.0, final 10.0
  Total Coliforms: 2.4 × 10^4 MPN per 100 ml
Total Coliform; [10]
  Total Coliform per 100 mL: 2.4 × 10^7 per 100 mL
Total Coliform; [11]
  Total Coliform per 100 mL: 1.3 × 10^7 per 100 mL
Total Coliform; ClO2 dose 2.7 mg/L, contact time 35 min
  Total Coliform per 100 mL: 2.4 × 10^6 per 100 mL
Total Coliform; ClO2 dose 5.0 mg/L, contact time 15 min
  Total Coliform per 100 mL: 2.4 × 10^6 per 100 mL
Total Coliform; ClO2 dose 5.0 mg/L, contact time 30 min
  Total Coliform per 100 mL: 7.9 × 10^3 per 100 mL
Total Coliform; ClO2 dose 5.0 mg/L, contact time 45 min
  Total Coliform per 100 mL: 2.4 × 10^3 per 100 mL
Total Coliform; [12]
  Total Coliform per 100 mL: 1.3 × 10^3 per 100 mL
Total Coliform; [13]
  Total Coliform per 100 mL: 3.3 × 10^2 per 100 mL
Streptococcus; [10]
  Streptococcus per 100 mL: 8.4 × 10^7 per 100 mL
Streptococcus; [11]
  Streptococcus per 100 mL: 2.4 × 10^7 per 100 mL
Streptococcus; [12]
  Streptococcus per 100 mL: 2.7 × 10^5 per 100 mL
Streptococcus; [13]
  Streptococcus per 100 mL: 8.0 × 10^3 per 100 mL
E-Coli Phage; pH initial 4.6, final 4.4
  E-Coli Phage: 0 MPN per 100 ml
E-Coli Phage; pH initial 5.5, final 5.6
  E-Coli Phage: 0 MPN per 100 ml
E-Coli Phage; pH initial 6.5, final 6.7
  E-Coli Phage: 0 MPN per 100 ml
E-Coli Phage; pH initial 7.5, final 7.6
  E-Coli Phage: 0 MPN per 100 ml
E-Coli Phage; pH initial 8.2, final 8.1
  E-Coli Phage: 2 MPN per 100 ml
E-Coli Phage; pH initial 9.1, final 9.2
  E-Coli Phage: 79 MPN per 100 ml
E-Coli Phage; pH initial 10.0, final 10.0
  E-Coli Phage: 79 MPN per 100 ml
